Where two headings read alike, the source gives them in different places.
Columns and labels:
[1] = molecular target: T1, hT1R1/hT1R3 umami receptor (Homo sapiens, UniProt Q7RTX0+Q7RTX1); assay: In vitro hT1R1/hT1R3 umami taste receptor activation assay (FLIPR, dose response); type: cell-based
T1 construct: expressed in transfected cells; host or cells: HEK293 derivative stably expressing Gα15, clone I-17, expression induced with mifepristone
T1 sequence (Q7RTX1 21-841): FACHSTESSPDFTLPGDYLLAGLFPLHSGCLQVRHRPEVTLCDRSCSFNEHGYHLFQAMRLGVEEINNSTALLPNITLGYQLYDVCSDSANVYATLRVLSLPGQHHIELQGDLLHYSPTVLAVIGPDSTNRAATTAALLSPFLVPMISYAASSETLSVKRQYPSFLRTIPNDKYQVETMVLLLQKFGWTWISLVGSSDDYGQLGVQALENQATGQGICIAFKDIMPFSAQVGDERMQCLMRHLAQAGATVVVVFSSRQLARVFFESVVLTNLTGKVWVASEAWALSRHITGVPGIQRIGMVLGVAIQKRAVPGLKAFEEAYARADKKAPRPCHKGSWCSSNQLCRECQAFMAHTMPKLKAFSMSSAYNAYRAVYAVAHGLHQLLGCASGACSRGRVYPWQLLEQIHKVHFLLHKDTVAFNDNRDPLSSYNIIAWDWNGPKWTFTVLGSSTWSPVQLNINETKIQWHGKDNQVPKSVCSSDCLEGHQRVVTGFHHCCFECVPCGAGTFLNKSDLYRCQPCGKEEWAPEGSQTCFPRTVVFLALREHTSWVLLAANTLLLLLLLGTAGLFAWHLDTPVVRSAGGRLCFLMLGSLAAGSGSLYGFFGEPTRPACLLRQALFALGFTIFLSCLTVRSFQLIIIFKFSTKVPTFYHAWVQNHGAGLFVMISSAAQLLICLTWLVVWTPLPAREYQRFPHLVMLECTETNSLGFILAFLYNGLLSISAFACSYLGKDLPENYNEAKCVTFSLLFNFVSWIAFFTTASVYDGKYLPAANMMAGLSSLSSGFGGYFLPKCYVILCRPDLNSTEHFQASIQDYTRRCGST
T1 sequence (Q7RTX0 21-852): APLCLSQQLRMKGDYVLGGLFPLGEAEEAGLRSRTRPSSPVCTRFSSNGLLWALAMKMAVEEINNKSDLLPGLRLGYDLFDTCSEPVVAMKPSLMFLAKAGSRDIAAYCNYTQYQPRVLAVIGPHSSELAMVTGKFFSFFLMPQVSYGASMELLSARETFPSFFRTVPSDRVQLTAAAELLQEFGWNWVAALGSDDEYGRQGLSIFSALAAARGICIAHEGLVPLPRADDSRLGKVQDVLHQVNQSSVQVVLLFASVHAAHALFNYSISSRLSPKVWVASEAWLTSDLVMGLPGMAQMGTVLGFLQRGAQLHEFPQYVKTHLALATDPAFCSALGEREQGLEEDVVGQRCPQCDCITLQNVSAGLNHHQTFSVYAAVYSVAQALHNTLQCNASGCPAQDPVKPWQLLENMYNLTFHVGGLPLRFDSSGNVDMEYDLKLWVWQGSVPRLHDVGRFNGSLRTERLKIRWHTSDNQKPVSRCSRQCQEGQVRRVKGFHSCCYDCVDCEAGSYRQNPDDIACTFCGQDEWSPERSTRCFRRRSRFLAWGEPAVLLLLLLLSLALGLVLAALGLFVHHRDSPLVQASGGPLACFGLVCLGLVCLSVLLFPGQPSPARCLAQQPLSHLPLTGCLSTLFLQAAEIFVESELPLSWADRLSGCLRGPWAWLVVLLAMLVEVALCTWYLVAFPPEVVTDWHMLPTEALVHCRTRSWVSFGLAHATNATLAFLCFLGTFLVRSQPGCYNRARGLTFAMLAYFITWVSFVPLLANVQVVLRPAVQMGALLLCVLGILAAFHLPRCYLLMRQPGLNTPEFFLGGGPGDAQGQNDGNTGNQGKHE

[2] = molecular target: T2, hT1R2/hT1R3 sweet receptor (Homo sapiens, UniProt Q7RTX0+Q8TE23); assay: In vitro hT1R2/hT1R3 sweet taste receptor activation assay (FLIPR, dose response); type: cell-based; details: Table E, Sweet Enhancer Amides; read-out: Sweet EC50
T2 construct: expressed in transfected cells; host or cells: HEK293 derivative stably expressing Gα15, clone S-9
T2 sequence (Q8TE23 20-839): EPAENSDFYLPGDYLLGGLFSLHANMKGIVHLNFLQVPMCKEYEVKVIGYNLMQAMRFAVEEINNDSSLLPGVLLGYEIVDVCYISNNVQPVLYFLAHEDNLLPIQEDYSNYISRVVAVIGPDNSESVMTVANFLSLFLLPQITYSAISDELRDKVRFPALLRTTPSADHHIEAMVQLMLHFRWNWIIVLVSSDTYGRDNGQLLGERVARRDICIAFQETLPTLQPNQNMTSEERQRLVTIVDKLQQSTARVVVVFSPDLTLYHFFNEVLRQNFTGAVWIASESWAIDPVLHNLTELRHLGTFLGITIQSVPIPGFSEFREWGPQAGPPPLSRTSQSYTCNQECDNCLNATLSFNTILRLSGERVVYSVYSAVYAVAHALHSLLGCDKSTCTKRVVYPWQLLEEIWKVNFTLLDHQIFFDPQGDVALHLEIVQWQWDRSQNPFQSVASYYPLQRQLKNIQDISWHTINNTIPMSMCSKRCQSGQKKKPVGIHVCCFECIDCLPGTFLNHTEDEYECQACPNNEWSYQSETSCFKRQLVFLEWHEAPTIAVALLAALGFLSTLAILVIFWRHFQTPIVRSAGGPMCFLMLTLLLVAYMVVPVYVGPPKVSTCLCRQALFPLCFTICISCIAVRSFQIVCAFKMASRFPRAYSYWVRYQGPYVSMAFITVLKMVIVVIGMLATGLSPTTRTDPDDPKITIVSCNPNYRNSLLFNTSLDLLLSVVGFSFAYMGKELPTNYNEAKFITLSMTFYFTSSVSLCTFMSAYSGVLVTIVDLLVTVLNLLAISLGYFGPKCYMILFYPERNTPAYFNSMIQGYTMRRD
T2 sequence (Q7RTX0 21-852): T1 sequence (Q7RTX0 21-852)
Outline: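 S-9 cells expressing hT1R2/hT1R3, loaded with 4 µM Fluo-3AM 1 h at room temperature. Calcium response on FLIPR at room temperature in D-PBS, with 10 concentrations from 60 nM to 30 µM in duplicate.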

[3] = read-out: EC50 for activation of a hT1R1/hT1R3 umami receptor expressed in an HEK293 cell line

Row | Compound | EC50 [1, 3] [nM] | melting point [°C] | EC50 ([1]; Table E, read-out: Umami EC50) [nM] | EC50 [2] [nM]
1 | CCCC(CCC)NC(=O)c1ccc2oc(CC)nc2c1 [Example 41, 2-Ethyl-benzooxazole-5-carboxylic acid (1-propyl-butyl)-amide] | 680 | 107 to 108 | – | –
2 | CCCC(CCC)NC(=O)c1ccc2oc(OC)nc2c1 [Example 42, 2-Methoxy-benzooxazole-5-carboxylic acid (1-propyl-butyl)-amide] | 690 | 137 to 138 | – | –
3 | CCCC(CCC)NC(=O)c1ccc2oc(OCC)nc2c1 [Example 43, 2-Ethoxy-benzooxazole-5-carboxylic acid (1-propyl-butyl)-amide] | 5000 | 128 to 129 | – | –
4 | CCCC(CCC)NC(=O)c1ccc2oc(SC)nc2c1 [Example 44, N-(heptan-4-yl)-2-(methylthio)benzo[d]oxazole-5-carboxamide] | 3100 | 113 to 114 | – | –
5 | CCCC(CCC)NC(=O)c1ccc2oc(CCl)nc2c1 [Example 45, Chloromethyl benzooxazol-5-carboxylic acid (1-propyl-butyl)amide] | 230 | 108.5 to 109 | – | –
6 | CCCC(CCC)NC(=O)c1ccc2nc(CCl)oc2c1 [Example 47, 2-Chloromethyl-benzooxazole-6-carboxylic acid (1-propyl-butyl)-amide] | 450 | 137 to 137.5 | – | –
7 | CCCC(CCC)NC(=O)c1ccc(SC)c(C)c1 [Example 51, N-(heptan-4-yl)-3-methyl-4-(methylthio)benzamide] | 120 | 129 to 131 | – | –
8 | COc1ccccc1CNC(=O)C(=O)NCCc1ccccn1 [Example 122, N-(2-Methoxy-benzyl)-N′-(2-pyridin-2-yl-ethyl)-oxalamide] | 340 | 118 to 119 | – | –
9 | Cc1ccsc1CNC(=O)C(=O)NCCc1ccccn1 [Example 124, N-(3-Methyl-thiophen-2-ylmethyl)-N′-(2-pyridin-2-yl-ethyl)-oxalamide] | 370 | 122 to 124 | – | –
10 | Cc1ccc(CNC(=O)C(=O)NCCc2ccccn2)cc1 [Example 125, N-(4-methyl-benzyl)-N′-(2-pyridin-2-yl-ethyl)-oxalamide] | 410 | 152 to 154 | – | –
11 | COc1ccc(CNC(=O)C(=O)NCCc2ccccn2)c(C)c1 [Example 126, N-(2-Methyl-4-methoxybenzyl)-N′-(2-pyridin-2-yl-ethyl)-oxalamide] | 110 | 133 to 134 | – | –
12 | Cc1cc(CNC(=O)C(=O)NCCc2ccccn2)c(C)o1 [Example 130, N-(2,5-Dimethyl-furan-3-ylmethyl)-N′-(2-pyridin-2-yl-ethyl)-oxalamide] | 1010 | 112 to 115 | – | –
13 | Cc1ccc(CNC(=O)C(=O)NCCc2ccccn2)n1C [Example 131, N-(1,5-Dimethyl-1H-pyrrol-2-ylmethyl)-N′-(2-pyridin-2-yl-ethyl)-oxalamide] | 2300 | 147 to 149 | – | –
14 | Cc1ccc(CNC(=O)C(=O)NCCc2ccccn2)c(C)c1 [Example 133, N-(2,4-dimethylbenzyl)-N′-(2-(pyridin-2-yl)ethyl)oxalamide] | 70 | 148 to 149 | – | –
15 | CCOc1ccc(CNC(=O)C(=O)NCCc2ccccn2)c(OC)c1 [Example 134, N-(4-ethoxy-2-methoxybenzyl)-N′-(2-(pyridin-2-yl)ethyl)oxalamide] | 100 | 117 to 118 | – | –
16 | COc1ccc(CNC(=O)C(=O)NCCc2ccccn2)cc1C [Example 135] | 1040 | 145 to 147 | – | –
17 | COc1ccc(CNC(=O)C(=O)NCCc2cc(C)ccn2)c(OC)c1 [Example 154, N-(2,4-Dimethoxybenzyl)-N′-(2-(4-methylpyridin-2-yl)ethyl)oxalamide] | 1640 | 144 to 145 | – | –
18 | COc1ccc(CNC(=O)C(=O)NCCc2ccc(C)cn2)c(OC)c1 [Example 155, N-(2,4-Dimethoxybenzyl)-N′-(2-(5-methylpyridin-2-yl)ethyl)oxalamide] | 70 | 124 to 125 | – | –
19 | COc1ccc(CNC(=O)C(=O)NCCc2cccs2)c(OC)c1 [Example 156, N-(2,4-Dimethoxybenzyl)-N′-(2-(thiophen-2-yl)ethyl)oxalamide] | 4870 | 146 to 147 | – | –
20 | CCCC(CCC)NC(=O)Nc1ccccc1Cl [Example 158] | 370 | 135 to 136 | – | –
21 | CCCC(CCC)NC(=O)c1cccc(C(F)(F)F)c1 [Example E68, N-(heptan-4-yl)-3-(trifluoromethyl)benzamide] | – | – | 330 | 3030
22 | CC1CCCCC1NC(=O)c1nsc(Cl)c1Cl (stereo not shown) [Example E78, 4,5-Dichloro-isothiazole-3-carboxylic acid (2-methyl-cyclohexyl)-amide] | – | – | 8510 | 4240
23 | C/C=C/c1c(F)c(F)c(C(=O)N[C@@H](C)C(C)C)c(F)c1F [Example E129, (S,E)-2,3,5,6-tetrafluoro-N-(3-methylbutan-2-yl)-4-(prop-1-enyl)benzamide] | – | – | – | 410
24 | C=CCc1c(F)c(F)c(C(=O)N[C@@H](C)C(C)(C)C)c(F)c1F [Example E130, (S)-4-allyl-N-(3,3-dimethylbutan-2-yl)-2,3,5,6-tetrafluorobenzamide] | – | – | – | 430
25 | CC(C)[C@H](C)NC(=O)c1c(F)c(F)c(-c2ccccc2)c(F)c1F [Example E131, (S)-2,3,5,6-tetrafluoro-N-(3-methylbutan-2-yl)-4-phenyl benzamide] | – | – | – | 440
26 | C=CCc1c(F)c(F)c(C(=O)NC2CCCCC2)c(F)c1F [Example E132, 4-allyl-N-cyclohexyl-2,3,5,6-tetrafluorobenzamide] | – | – | – | 550
27 | CCOc1c(F)c(F)c(C(=O)N[C@@H](C)C(C)C)c(F)c1F [Example E133, (S)-4-ethoxy-2,3,5,6-tetrafluoro-N-(3-methylbutan-2-yl)benzamide] | – | – | – | 600

Reference: patent US20060045953A1 (priority 2004, published 2006)
